Measured values: patent publication US20080261986A1, “PHARMACEUTICAL FORMULATIONS FOR IONTOPHORETIC DELIVERY OF AN ANTI-FUNGAL DRUG” (priority 2007, published 2008)
≈ marks a conversion by molar mass, not a printed value. Where “and” joins values, the source holds several entries; their conditions need not be identical. Identical values can stand only once. Counter-ions that a name gives are not always drawn. Like-named read-outs stand apart in the source and are kept apart here.

Assays:
[1] = test system: C. albicans; experiment: Permeation across full thickness nail (ChubTur cell), receiver fluid assayed by C. albicans growth absorbance; format: cell-based; settings: for Absorbance: replicates 1-3, full thickness human nail, C. albicans, 600 nm; for permeation across full thickness nail: all conditions tested (cathodal, anodal, passive)
[2] = Approximate visual solubility in receiver fluids; format: physicochemical
Experimental: The visual solubility of each receiver fluid shown in Table 3 below was initially tested for ketoconazole (BUFA B.V.) and ciclopirox (PCAS Finland Oy). Additional solubility testing was then conducted for terbinafine hydrochloride (QueMaCo Ltd.), amorolfine hydrochloride (Inter-Chemical Ltd.) and itraconazole EP (Shamrock, UK) and the results are shown in Table 3.
The solubility of terbinafine hydrochloride, fluconazole, itraconazole and amorolfine hydrochloride was determined in PBS and 5% Tween 80 and the results are summarized in Table 4.

[3] = format: in vitro ADME, human
Experimental: Prehydrated cadaver finger nails (approximately 0.5-0.7 mm thickness) or bovine hooves (approximately 0.25 mm thickness) were used for comparing different formulations as described in Examples 8-10. […] A nail adaptor was required to accommodate the curvature of the nail, but not for the hoof. The receptor compartments were filled with receiver fluid (3-5 ml water pH 3) and the drug formulations described above (0.5-2 mL) were placed in the donor compartment. […] Receptor levels of drug permeated were analyzed. Aliquots removed were replaced with an equal amount of buffer, and were assayed by HPLC to measure terbinafine HCl permeation through the nail or hoof. Control passive experiments were conducted in the same way except for the application of electric current. Nails or hooves were taken out of the FDC and drug extracted as described in Example 4. The drug loading levels in the nail or hoof were expressed as mg terbinafine HCl per g of nail or hoof. Data were expressed as means ±standard deviations. All experiments were performed in triplicate. […] The four formulations were evaluated for permeation of terbinafine HCl through the nail and loading in the nail as described in Example 8. Formulations containing benzoic acid improved permeation of terbinafine HCl through the nail over the base glycerin formulation without benzoic acid (FIG. 7A).

[4] = aqueous with cosolvent or surfactant or cyclodextrin, Approximate visual solubility

## CCC(C)(C)c1ccc(CC(C)CN2C[C@@H](C)O[C@@H](C)C2)cc1 (stereo partly shown) [Amorolfine hydrochloride, amorolfine hydrochloride]
[1]; Anodal iontophoresis (1000 μA, 1 hr), listed as Amorolifine, hydrochloride
  Absorbance: 0.54 and 0.44 and 0.40
[1]; Cathodal iontophoresis, controls: no C. albicans 0.037-0.039, no compound 0.126-0.160, listed as Amorolifine, hydrochloride
  Absorbance: 0.50 and 0.54 and 0.49
[1]; Passive permeation, listed as Amorolifine, hydrochloride
  Absorbance: 0.48 and 0.59 and 0.54
[1]
  permeation across full thickness nail: did not show permeation of the nail under any conditions tested
[2]; [4]
  solubility: 2050 to 2570 µg/mL

## Cc1cc(C2CCCCC2)n(O)c(=O)c1 [Ciclopirox olamine, ciclopirox olamine]
[1]; Anodal iontophoresis (1000 μA, 1 hr)
  Absorbance: 0.042 and 0.079
[1]; Cathodal iontophoresis, controls: no C. albicans 0.037-0.039, no compound 0.126-0.160
  Absorbance: 0.048
[1]; Passive permeation
  Absorbance: 0.157 and 0.129
[1]; both cathodal and anodal iontophoresis
  permeation across full thickness nail (detection in receiver fluid): detected in the receiver fluid
[1]; passive delivery
  permeation across full thickness nail (detection in receiver fluid): not with passive delivery

## OC(Cn1cncn1)(Cn1cncn1)c1ccc(F)cc1F [Fluconazole, fluconazole]
[2]; aqueous with cosolvent or surfactant or cyclodextrin, PBS and 5% Tween 80 (Table 4), read-out: Approximate visual solubility
  solubility: 1910 to 2170 µg/mL (≈ 6240 to 7090 µM)

## CCC(C)n1ncn(-c2ccc(N3CCN(c4ccc(OCC5COC(Cn6cncn6)(c6ccc(Cl)cc6Cl)O5)cc4)CC3)cc2)c1=O (stereo not shown) [Itraconazole, itraconazole]
[2]; [4]
  solubility: < 330 µg/mL

## Cc1cc(C2CCCCC2)n(O)c(=O)c1 [ciclopirox]
[1]; Anodal iontophoresis (1000 μA, 1 hr), listed as Ciclopirox
  Absorbance: 0.045 and 0.044 and 0.068
[1]; Cathodal iontophoresis, controls: no C. albicans 0.037-0.039, no compound 0.126-0.160, listed as Ciclopirox
  Absorbance: 0.075 and 0.085 and 0.079
[1]; Passive permeation, listed as Ciclopirox
  Absorbance: 0.075 and 0.046
[1]
  permeation across full thickness nail: appeared to penetrate the nail regardless of whether current was applied
[2]
  solubility in receiver fluid (in words): good solubility
[2]; aqueous buffer, Approximate visual solubility
  solubility: < 388 µg/mL

## CC(=O)N1CCN(c2ccc(OCC3COC(Cn4ccnc4)(c4ccc(Cl)cc4Cl)O3)cc2)CC1 (stereo not shown) [ketoconazole]
[2]; PBS and 5% Tween 80
  solubility in receiver fluid (in words): good solubility
[2]; aqueous buffer, 1% Propylene glycol in PBS, read-out: Approximate visual solubility
  solubility: < 554 µg/mL
[2]; aqueous with cosolvent or surfactant or cyclodextrin, 20 mM B hydroxylpropyl cyclodextrin in PBS, read-out: Approximate visual solubility
  solubility: < 1030 µg/mL
[2]; aqueous with cosolvent or surfactant or cyclodextrin, 200 mM B hydroxylpropyl cyclodextrin in PBS, read-out: Approximate visual solubility
  solubility: 2120 to 2370 µg/mL (≈ 3990 to 4460 µM)
[2]; aqueous with cosolvent or surfactant or cyclodextrin, 0.5% Tween-80 in PBS, read-out: Approximate visual solubility
  solubility: < 412 µg/mL
[2]; aqueous with cosolvent or surfactant or cyclodextrin, 1% Tween-80 in PBS, read-out: Approximate visual solubility
  solubility: < 458 µg/mL
[2]; aqueous with cosolvent or surfactant or cyclodextrin, 2% Tween-80 in PBS, read-out: Approximate visual solubility
  solubility: < 646 µg/mL
[2]; aqueous with cosolvent or surfactant or cyclodextrin, 5% Ethanol in PBS, read-out: Approximate visual solubility
  solubility: < 910 µg/mL
[2]; aqueous with cosolvent or surfactant or cyclodextrin, 5% Propylene glycol in PBS, read-out: Approximate visual solubility
  solubility: < 472 µg/mL
[2]; aqueous with cosolvent or surfactant or cyclodextrin, 5% Tween-80 in PBS, read-out: Approximate visual solubility
  solubility: 1280 to 1530 µg/mL (≈ 2410 to 2880 µM)
[2]; aqueous with cosolvent or surfactant or cyclodextrin, 10% Ethanol in PBS, read-out: Approximate visual solubility
  solubility: < 438 µg/mL
[2]; aqueous with cosolvent or surfactant or cyclodextrin, 20% Ethanol in PBS, read-out: Approximate visual solubility
  solubility: < 398 µg/mL

## PEG 400
[3]
  permeation of terbinafine HCl through the nail (in words): further improved the permeation of terbinafine HCl through the nail
